Literature values as cited in US11918665B2, “Method for dyeing keratinous material, comprising the use of an organosilicon compound, a colored effect pigment and a sealing reagent I” (Henkel AG & Co. KGaA, priority 2019, dated 2024).

Conditions: 25° C.

solubility in water (in words) | Structure (SMILES) | solubility in water
highly soluble in water | O=C([O-])C1=NN(c2ccc(S(=O)(=O)[O-])cc2)C(=O)C1N=Nc1ccc(S(=O)(=O)[O-])cc1.[Na+].[Na+].[Na+] (stereo not shown) [Acid Yellow 23, trisodium salt of 4,5-dihydro-5-oxo-1-(4-sulfophenyl)-4-((4-sulfophenyl)azo)-1H-pyrazole-3-carboxylic acid] | 
 | Nc1cc(S(=O)(=O)[O-])cc2cc(S(=O)(=O)[O-])c(N=Nc3ccccc3)c(O)c12.[Na+].[Na+] [Acid Red 33, disodium salt of 5-amino-4-hydroxy-3-(phenylazo)-naphthalene-2,7-disulphonate] | 2.5 mg/mL
 | O=S(=O)([O-])c1ccc(N=Nc2c(O)ccc3ccccc23)cc1.[Na+] [Acid Orange 7, sodium salt of 4-[(2-hydroxy-1-naphthyl)azo]benzene sulphonate] | more than 7 g/L
 | O=C([O-])c1c(Cl)c(Cl)c(Cl)c(Cl)c1-c1c2c(Br)cc(=O)c(Br)c-2oc2c(Br)c(O)cc(Br)c12.O=C([O-])c1c(Cl)c(Cl)c(Cl)c(Cl)c1-c1c2c(Br)cc(=O)c(Br)c-2oc2c(Br)c(O)cc(Br)c12.[Na+].[Na+] [Acid Red 92, disodium salt of 3,4,5,6-tetrachloro-2-(1,4,5,8-tetrabromo-6-hydroxy-3-oxoxanthen-9-yl)benzoic acid] | greater than 10 g/L
